Experimental findings from US20240400555A1 (Initial Therapeutics, Inc., priority 2023, published 2024) are described below.

The subject of the test is HCT-116 Firefly-luciferase reporter cells. Description: Cellular c-MYC Reporter Assay. Format: cell-based. Conditions: Homo sapiens; untitled table following Table 8a; HCT-116 Firefly-luciferase reporter cells, 24 h; read-out: pIC50 (converted). On the procedure: HCT-116 Firefly-luciferase reporter cells (BPS Bioscience) were seeded in 96-well tissue-culture treated sterile plates (Greiner Bio-One) at 5e4 cells/mL in 100 μL complete growth media (McCoy's 5A+10% FBS, +1% Pen-Strep, +1% G418). Cells were incubated at 37° C. with 5% CO2 for 4-6 h then treated with 3× compound solution in 50 μL complete growth media for a final volume of 150 μL per well with 0.2% DMSO. After 24 h incubation at 37° C. with 5% CO2, plates were allowed to equilibrate to RT for 20 min then developed by addition of 100 μL ONE-Glo Luciferase detection reagent (Promega), incubated at RT for 10 min. Luminescence was recorded using a SpectraMax i3x plate reader (Molecular Devices) and analyzed using Prism GraphPad 9 software.
For orientation: In a reporter assay the amount or activity of a reporter protein is the signal.
Consider `O=C(c1ccc(-n2nnc3cccnc32)cc1F)N(c1nccc2cc(-c3cn[nH]c3)ccc12)[C@@H]1CCCNC1` [Example 106, (R)—N-(6-(1H-pyrazol-4-yl)isoquinolin-1-yl)-4-(3H-[1,2,3]triazolo[4,5-b]pyridin-3-yl)-2-fluoro-N-(piperidin-3-yl)benzamide], for which the IC50 is 537 nM. The same measure for `C#Cc1cccnc1N(C(=O)c1ccc(-n2nnc3cccnc32)cc1F)[C@@H]1CCCNC1` [Example 107, (R)-4-(3H-[1,2,3]triazolo[4,5-b]pyridin-3-yl)-N-(3-ethynylpyridin-2-yl)-2-fluoro-N-(piperidin-3-yl)benzamide]: 977 nM; for `C=C(C)c1cccnc1N(C(=O)c1ccc(-n2nnc3cccnc32)cc1F)[C@@H]1CCCNC1` [Example 108, (R)-4-(3H-[1,2,3]triazolo[4,5-b]pyridin-3-yl)-2-fluoro-N-(piperidin-3-yl)-N-(3-(prop-1-en-2-yl)pyridin-2-yl)benzamide]: 129 nM. The result for `Cn1cc(-c2ccc(C(=O)N(c3cc(/C=C/c4ccccc4)ccn3)[C@@H]3CCCNC3)cc2)nn1` [Example 109, (R,E)-4-(1-methyl-1H-1,2,3-triazol-4-yl)-N-(piperidin-3-yl)-N-(4-styrylpyridin-2-yl)benzamide] reads more than 10000 nM; that for `Cn1cc(-c2ccc(C(=O)N(c3cc(-c4cc[nH]n4)ccn3)[C@@H]3CCCNC3)cc2)nn1` [Example 110, 4-(1-methyltriazol-4-yl)-N-[(3R)-3-piperidyl]-N-[4-(1H-pyrazol-3-yl)-2-pyridyl] benzamide], more than 10000 nM. The same measure for `Cc1cccc2ccnc(N(C(=O)c3ccc(-c4cn(C)nn4)cc3)[C@@H]3CCCNC3)c12` [Example 111, (R)-4-(1-methyl-1H-1,2,3-triazol-4-yl)-N-(8-methylisoquinolin-1-yl)-N-(piperidin-3-yl) benzamide]: 513 nM. Consider `Cn1cnc(-c2cccnc2N(C(=O)c2ccc(-n3nnc4cccnc43)cc2F)[C@@H]2CCCNC2)c1` [Example 112, (R)-4-(3H-[1,2,3]triazolo[4,5-b]pyridin-3-yl)-2-fluoro-N-(3-(1-methyl-1H-imidazol-4-yl)pyridin-2-yl)-N-(piperidin-3-yl)benzamide], for which the IC50 was 380 nM. Regarding `O=C(c1ccc(-n2nnc3cccnc32)cc1F)N(c1ncccc1C1=CCNC1)[C@@H]1CCCNC1` [Example 113, (R)-4-(3H-[1,2,3]triazolo[4,5-b]pyridin-3-yl)-N-(3-(2,5-dihydro-1H-pyrrol-3-yl)pyridin-2-yl)-2-fluoro-N-(piperidin-3-yl)benzamide], the IC50 is 4270 nM. The result for `O=C(c1ccc(-n2nnc3cccnc32)cc1F)N(c1ncccc1-c1cnoc1)[C@@H]1CCCNC1` [Example 114, (R)-4-(3H-[1,2,3]triazolo[4,5-b]pyridin-3-yl)-2-fluoro-N-(3-(isoxazol-4-yl)pyridin-2-yl)-N-(piperidin-3-yl)benzamide] reads 1120 nM.

Consider `Cn1cc(-c2cccnc2N(C(=O)c2ccc(-n3nnc4cccnc43)cc2F)[C@@H]2CCCNC2)cn1` [Example 115, (R)-4-(3H-[1,2,3]triazolo[4,5-b]pyridin-3-yl)-2-fluoro-N-(3-(1-methyl-1H-pyrazol-4-yl)pyridin-2-yl)-N-(piperidin-3-yl)benzamide], for which the IC50 is 550 nM. Consider `O=C(c1ccc(-n2nnc3cccnc32)cc1F)N(c1ncccc1-c1cnn(CCO)c1)[C@@H]1CCCNC1` [Example 116, (R)-4-(3H-[1,2,3]triazolo[4,5-b]pyridin-3-yl)-2-fluoro-N-(3-(1-(2-hydroxyethyl)-1H-pyrazol-4-yl)pyridin-2-yl)-N-(piperidin-3-yl)benzamide], for which the IC50 is 2570 nM. The same measure for `COC(=O)c1ccc2c(N(C(=O)c3ccc(-n4nnc5cccnc54)cc3F)[C@@H]3CCCNC3)nccc2c1` [Example 117, methyl (R)-1-(4-(3H-[1,2,3]triazolo[4,5-b]pyridin-3-yl)-2-fluoro-N-(piperidin-3-yl)benzamido)isoquinoline-6-carboxylate]: 490 nM; for `O=C(O)c1ccc2c(N(C(=O)c3ccc(-n4nnc5cccnc54)cc3F)[C@@H]3CCCNC3)nccc2c1` [Example 118, (R)-1-(4-(3H-[1,2,3]triazolo[4,5-b]pyridin-3-yl)-2-fluoro-N-(piperidin-3-yl)benzamido)isoquinoline-6-carboxylic acid]: more than 20000 nM; for `Cn1ncc2ccnc(N(C(=O)c3ccc(Nc4ncccn4)cc3F)[C@@H]3CCCNC3)c21` [Example 119, (R)-2-fluoro-N-(1-methyl-1H-pyrazolo[3,4-c]pyridin-7-yl)-N-(piperidin-3-yl)-4-(pyrimidin-2-ylamino)benzamide]: 1410 nM. The result for `Cc1csc2ccnc(N(C(=O)c3ccc(-n4nnc5cccnc54)cc3F)[C@@H]3CCCNC3)c12` [Example 121, 2-fluoro-N-(3-methylthieno[3,2-c]pyridin-4-yl)-N-[(3R)-3-piperidyl]-4-(triazolo[4,5-b]pyridin-3-yl)benzamide] reads 38 nM; that for `O=C(c1ccc(-n2nnc3cccnc32)cc1F)N(c1nccc2scc(Br)c12)[C@@H]1CCCNC1` [Example 122, (R)-4-(3H-[1,2,3]triazolo[4,5-b]pyridin-3-yl)-N-(3-bromothieno[3,2-c]pyridin-4-yl)-2-fluoro-N-(piperidin-3-yl)benzamide], 123 nM; that for `Cc1cccc2ccnc(N(C(=O)c3ccc(-c4n[nH]c5c4CCCC5)cc3F)[C@@H]3CCCNC3)c12` [Example 123, (R)-2-fluoro-N-(8-methylisoquinolin-1-yl)-N-(piperidin-3-yl)-4-(4,5,6,7-tetrahydro-1H-indazol-3-yl) benzamide], 5010 nM. `Cc1cccc2ccnc(N(C(=O)c3ccc(N)cc3F)[C@@H]3CCCNC3)c12` [Example 124, (R)-4-amino-2-fluoro-N-(8-methylisoquinolin-1-yl)-N-(piperidin-3-yl) benzamide]: the IC50 is 3890 nM. The same measure for `Cc1cccc2ccnc(N(C(=O)c3ccc(-c4nnn(C)n4)cc3F)[C@@H]3CCCNC3)c12` [Example 125, (R)-2-fluoro-4-(2-methyl-2H-tetrazol-5-yl)-N-(8-methylisoquinolin-1-yl)-N-(piperidin-3-yl) benzamide]: 24.5 nM; for `Cc1cccc2ccnc(N(C(=O)c3ccc(-c4cnn(C)c4-c4ccccc4)cc3F)[C@@H]3CCCNC3)c12` [Example 126, (R)-2-fluoro-4-(1-methyl-5-phenyl-1H-pyrazol-4-yl)-N-(8-methylisoquinolin-1-yl)-N-(piperidin-3-yl) benzamide]: 355 nM.

Consider `Cc1nnc(-c2ccc(C(=O)N(c3nccc4cccc(C)c34)[C@@H]3CCCNC3)c(F)c2)s1` [Example 127, (R)-2-fluoro-4-(5-methyl-1,3,4-thiadiazol-2-yl)-N-(8-methylisoquinolin-1-yl)-N-(piperidin-3-yl) benzamide], for which the IC50 was 339 nM. The same measure for `Cc1cccc2ccnc(N(C(=O)c3ccc(-c4nnn[nH]4)cc3)[C@H]3CCCNC3)c12` [Example 128, (S)—N-(8-methylisoquinolin-1-yl)-N-(piperidin-3-yl)-4-(1H-tetrazol-5-yl)benzamide]: more than 10000 nM; for `COC(=O)c1ccc2ccnc(N(C(=O)c3ccc(-n4nnc5cccnc54)cc3F)[C@@H]3CCCNC3)c2c1` [Example 129, methyl (R)-1-(4-(3H-[1,2,3]triazolo[4,5-b]pyridin-3-yl)-2-fluoro-N-(piperidin-3-yl)benzamido)isoquinoline-7-carboxylate]: 339 nM.
